In patent publication JP2019019068A, “アリールアゾール化合物および有害生物防除剤” (Nippon Soda Co Ltd, priority 2017, dated 2019):

Tests used:
[1] = system: diamondback moth (コナガ) 2nd instar larvae; test: Test Example 1: efficacy test against diamondback moth (コナガ), cabbage leaf dip; assay type: in vivo; conditions: Plutella xylostella, foliar, 72 h, cabbage leaf dipped 30 s, 25 °C, 60% humidity, 3 days after release, 2 replicates, read-out: insecticidal rate
[2] = system: striped flea beetle (キスジノミハムシ) adults; test: Test Example 2: efficacy test against striped flea beetle (キスジノミハムシ), spray on bok choy seedlings; assay type: in vivo; conditions: Phyllotreta striolata, 168 h, sprayed on bok choy seedlings, 25 °C, 65% humidity, 7 days after release, 2 replicates, read-out: insecticidal rate

CCS(=O)(=O)c1cc(/C=N/OCC(F)(F)F)cnc1-c1ncc(C=C(Cl)C(F)(F)F)n1C [化合物番号1, (E)-6-(5-(2-chloro-3,3,3-trifluoroprop-1-en-1-yl)-1-methyl-1H-imidazol-2-yl)-5-(ethylsulfonyl)nicotinaldehyde O-(2,2,2-trifluoroethyl) oxime]
mortality at 125 ppm [1]: ≥ 80%
mortality at 125 ppm [2]: ≥ 80%
